In ChEMBL document CHEMBL4130634, “Discovery of Reversible DNA Methyltransferase and Lysine Methyltransferase G9a Inhibitors with Antitumoral in Vivo Efficacy” (J Med Chem, 2018):

Key:
[1] = target: T1, Histone-lysine N-methyltransferase EHMT2 (Homo sapiens, UniProt Q96KQ7); experiment: Inhibition of human G9a using biotinylated-H3K9 peptide as substrate after 1 hr in presence of SAM by TR-FRET assay
T1 sequence (Q96KQ7 whole entry): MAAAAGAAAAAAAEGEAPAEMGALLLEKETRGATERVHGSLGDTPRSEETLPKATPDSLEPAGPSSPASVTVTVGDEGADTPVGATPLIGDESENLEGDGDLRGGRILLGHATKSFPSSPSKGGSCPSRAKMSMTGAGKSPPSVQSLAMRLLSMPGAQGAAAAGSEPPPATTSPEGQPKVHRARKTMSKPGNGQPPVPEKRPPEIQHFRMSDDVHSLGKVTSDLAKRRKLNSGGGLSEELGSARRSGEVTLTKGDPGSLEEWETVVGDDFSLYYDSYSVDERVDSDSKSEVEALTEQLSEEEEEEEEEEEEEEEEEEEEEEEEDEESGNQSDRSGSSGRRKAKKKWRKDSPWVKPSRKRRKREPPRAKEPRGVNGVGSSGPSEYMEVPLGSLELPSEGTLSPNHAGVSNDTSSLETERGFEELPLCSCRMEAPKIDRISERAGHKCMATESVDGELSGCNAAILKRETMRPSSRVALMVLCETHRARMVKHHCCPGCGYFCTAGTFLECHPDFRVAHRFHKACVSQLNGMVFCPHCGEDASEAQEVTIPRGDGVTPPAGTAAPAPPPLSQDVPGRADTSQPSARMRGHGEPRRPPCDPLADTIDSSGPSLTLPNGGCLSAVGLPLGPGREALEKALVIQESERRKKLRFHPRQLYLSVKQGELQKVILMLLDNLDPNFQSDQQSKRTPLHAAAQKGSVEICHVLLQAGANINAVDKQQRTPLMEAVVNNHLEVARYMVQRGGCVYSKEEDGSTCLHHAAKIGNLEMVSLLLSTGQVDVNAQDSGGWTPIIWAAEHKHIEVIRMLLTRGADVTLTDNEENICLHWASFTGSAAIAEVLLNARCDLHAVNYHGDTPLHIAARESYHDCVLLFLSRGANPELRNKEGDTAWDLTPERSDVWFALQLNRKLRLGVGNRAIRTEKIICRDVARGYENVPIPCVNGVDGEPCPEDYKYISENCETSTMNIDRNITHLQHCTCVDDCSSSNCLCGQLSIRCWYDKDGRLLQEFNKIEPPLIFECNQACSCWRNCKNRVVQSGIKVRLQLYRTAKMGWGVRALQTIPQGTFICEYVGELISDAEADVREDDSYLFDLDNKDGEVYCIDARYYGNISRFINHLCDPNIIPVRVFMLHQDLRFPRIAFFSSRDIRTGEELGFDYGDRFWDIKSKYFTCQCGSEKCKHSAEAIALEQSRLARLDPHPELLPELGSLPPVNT

[2] = target: T2, DNA (cytosine-5)-methyltransferase 1 (Homo sapiens, UniProt P26358); experiment: Inhibition of human DNMT1 using polydeoxyinosine polydeoxycytosine DNA as substrate after 15 mins in presence of SAM by TR-FRET assay
T2 sequence (P26358 whole entry): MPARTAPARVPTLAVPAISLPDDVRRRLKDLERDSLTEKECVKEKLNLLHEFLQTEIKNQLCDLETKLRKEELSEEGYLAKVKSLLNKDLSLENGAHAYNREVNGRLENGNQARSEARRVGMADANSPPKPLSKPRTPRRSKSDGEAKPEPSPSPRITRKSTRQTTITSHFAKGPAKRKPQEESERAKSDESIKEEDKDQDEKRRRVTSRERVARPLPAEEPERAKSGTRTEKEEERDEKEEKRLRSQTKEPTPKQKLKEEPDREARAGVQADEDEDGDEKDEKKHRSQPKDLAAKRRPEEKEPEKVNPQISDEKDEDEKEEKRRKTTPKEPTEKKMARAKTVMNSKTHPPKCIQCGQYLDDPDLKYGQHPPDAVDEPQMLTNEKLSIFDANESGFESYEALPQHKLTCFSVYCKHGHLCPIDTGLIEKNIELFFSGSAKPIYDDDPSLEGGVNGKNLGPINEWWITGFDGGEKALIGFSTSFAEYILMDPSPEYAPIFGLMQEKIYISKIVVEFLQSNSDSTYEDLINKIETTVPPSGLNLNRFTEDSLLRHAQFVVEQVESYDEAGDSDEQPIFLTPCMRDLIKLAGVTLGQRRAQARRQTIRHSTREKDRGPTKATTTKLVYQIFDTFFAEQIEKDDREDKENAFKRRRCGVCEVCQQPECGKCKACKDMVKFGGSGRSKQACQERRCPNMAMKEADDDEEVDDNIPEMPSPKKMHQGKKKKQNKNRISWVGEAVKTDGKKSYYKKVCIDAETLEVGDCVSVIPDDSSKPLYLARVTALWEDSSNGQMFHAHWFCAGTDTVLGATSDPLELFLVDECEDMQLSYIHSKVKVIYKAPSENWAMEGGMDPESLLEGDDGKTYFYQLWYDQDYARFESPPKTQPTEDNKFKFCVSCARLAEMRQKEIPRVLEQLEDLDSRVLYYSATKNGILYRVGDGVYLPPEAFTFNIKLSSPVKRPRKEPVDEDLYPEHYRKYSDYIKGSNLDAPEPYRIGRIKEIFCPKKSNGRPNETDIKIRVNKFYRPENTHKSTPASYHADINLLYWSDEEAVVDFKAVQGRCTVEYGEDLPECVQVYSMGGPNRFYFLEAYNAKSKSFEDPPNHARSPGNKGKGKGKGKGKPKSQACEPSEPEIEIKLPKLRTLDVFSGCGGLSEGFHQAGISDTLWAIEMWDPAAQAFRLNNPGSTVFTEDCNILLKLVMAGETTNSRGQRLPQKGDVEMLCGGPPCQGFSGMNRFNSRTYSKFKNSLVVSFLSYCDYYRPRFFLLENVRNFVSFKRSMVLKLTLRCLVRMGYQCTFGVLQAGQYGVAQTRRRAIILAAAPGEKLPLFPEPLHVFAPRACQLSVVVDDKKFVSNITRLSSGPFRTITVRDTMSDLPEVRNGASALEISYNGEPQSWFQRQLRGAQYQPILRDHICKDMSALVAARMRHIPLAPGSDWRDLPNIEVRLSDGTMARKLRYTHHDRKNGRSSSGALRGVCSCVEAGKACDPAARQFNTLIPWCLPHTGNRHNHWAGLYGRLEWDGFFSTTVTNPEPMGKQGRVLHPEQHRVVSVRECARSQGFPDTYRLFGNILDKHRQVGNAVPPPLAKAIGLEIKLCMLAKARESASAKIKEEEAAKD

[3] = Growth inhibition of human CEMO1 cells at 10 uM after 48 hrs by MTS assay relative to control; format: functional; settings: read-out: GI
[4] = system: OCI-Ly3; experiment: Growth inhibition of human OCI-LY3 cells after 48 hrs by MTS assay; format: functional; settings: OCI-Ly3, 48 h
[5] = target: CYP3A4 (Homo sapiens, UniProt P08684); experiment: Inhibition of CYP3A4 in human liver microsomes at 10 uM after 10 mins in presence of NADPH by LC-MS/MS analysis relative to control; format: ADME
Sequence of CYP3A4 (P08684 whole entry): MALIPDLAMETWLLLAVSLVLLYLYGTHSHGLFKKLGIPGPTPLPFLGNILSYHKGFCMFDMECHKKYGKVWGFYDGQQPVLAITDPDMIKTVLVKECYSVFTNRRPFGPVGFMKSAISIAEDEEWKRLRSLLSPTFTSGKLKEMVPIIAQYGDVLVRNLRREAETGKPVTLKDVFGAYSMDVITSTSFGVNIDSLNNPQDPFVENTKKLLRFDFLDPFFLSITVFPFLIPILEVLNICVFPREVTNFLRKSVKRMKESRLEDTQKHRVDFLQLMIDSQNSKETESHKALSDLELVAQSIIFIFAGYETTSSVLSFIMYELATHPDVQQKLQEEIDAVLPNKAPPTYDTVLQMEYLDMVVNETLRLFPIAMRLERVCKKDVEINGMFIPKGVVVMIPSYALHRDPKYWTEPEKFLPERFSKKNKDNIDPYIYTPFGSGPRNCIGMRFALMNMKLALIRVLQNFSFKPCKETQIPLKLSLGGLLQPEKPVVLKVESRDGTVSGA

[6] = target: T3, CYP1A2 (Homo sapiens, UniProt P05177); experiment: Inhibition of CYP1A2 in human liver microsomes at 10 uM after 10 mins in presence of NADPH by LC-MS/MS analysis relative to control; format: ADME
T3 sequence (P05177 whole entry): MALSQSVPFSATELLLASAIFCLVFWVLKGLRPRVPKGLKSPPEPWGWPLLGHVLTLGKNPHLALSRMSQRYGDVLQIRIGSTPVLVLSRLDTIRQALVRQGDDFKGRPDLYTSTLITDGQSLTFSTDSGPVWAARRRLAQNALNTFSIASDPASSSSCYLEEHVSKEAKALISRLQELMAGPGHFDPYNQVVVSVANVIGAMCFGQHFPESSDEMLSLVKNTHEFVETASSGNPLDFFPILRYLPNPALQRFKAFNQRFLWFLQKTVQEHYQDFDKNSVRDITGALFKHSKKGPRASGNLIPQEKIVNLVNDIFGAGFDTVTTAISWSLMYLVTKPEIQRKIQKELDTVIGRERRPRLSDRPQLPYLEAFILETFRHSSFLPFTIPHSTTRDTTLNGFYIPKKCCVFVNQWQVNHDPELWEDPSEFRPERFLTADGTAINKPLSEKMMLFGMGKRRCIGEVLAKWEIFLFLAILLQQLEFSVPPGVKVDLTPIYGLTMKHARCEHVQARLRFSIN

[7] = target: CYP2D6 (Homo sapiens, UniProt P10635); experiment: Inhibition of CYP2D6 in human liver microsomes at 10 uM after 10 mins in presence of NADPH by LC-MS/MS analysis relative to control; format: ADME
Sequence of CYP2D6 (P10635 whole entry): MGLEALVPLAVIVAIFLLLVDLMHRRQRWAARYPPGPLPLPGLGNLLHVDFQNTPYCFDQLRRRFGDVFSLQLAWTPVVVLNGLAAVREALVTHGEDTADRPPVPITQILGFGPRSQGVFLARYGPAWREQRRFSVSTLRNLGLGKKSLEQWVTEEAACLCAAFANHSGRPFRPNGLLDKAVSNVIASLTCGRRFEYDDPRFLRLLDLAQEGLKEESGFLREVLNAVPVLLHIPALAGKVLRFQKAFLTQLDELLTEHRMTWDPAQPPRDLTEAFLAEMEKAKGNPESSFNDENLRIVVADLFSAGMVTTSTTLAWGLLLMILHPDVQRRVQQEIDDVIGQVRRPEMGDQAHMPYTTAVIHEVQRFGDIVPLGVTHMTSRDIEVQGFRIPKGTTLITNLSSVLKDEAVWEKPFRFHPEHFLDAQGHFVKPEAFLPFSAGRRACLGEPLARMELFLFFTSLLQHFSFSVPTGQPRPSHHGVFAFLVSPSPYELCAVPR

[8] = Metabolic stability in mouse liver microsomes assessed as parent compound remaining at 1 uM preincubated for 10 mins followed by NADP addition after 20 mins by LC-MS/MS analysis; format: ADME, microsome; settings: read-out: Stability
[9] = system: THLE-2; experiment: Growth inhibition of human THLE2 cells after 72 hrs by MTS assay; format: cell-based; settings: thle-2, 72 h
[10] = Half life in mouse liver microsomes at 1 uM preincubated for 10 mins followed by NADP addition after 20 mins by LC-MS/MS analysis; format: ADME, microsome
[11] = Growth inhibition of human CEMO1 cells after 48 hrs by MTS assay; format: functional
[12] = Metabolic stability in human liver microsomes assessed as parent compound remaining at 1 uM preincubated for 10 mins followed by NADP addition after 20 mins by LC-MS/MS analysis; format: ADME, microsome; settings: microsomes, 20 min, 1 µM
[13] = Permeability of the compound at 50 uM after 18 hrs by PAMPA; format: ADME; settings: read-out: permeability
[14] = system: MV4-11; experiment: Growth inhibition of human MV4-11 cells after 48 hrs by MTS assay; format: functional; settings: MV4-11, 48 h
[15] = target: CYP2C19 (Homo sapiens, UniProt P33261); experiment: Inhibition of CYP2C19 in human liver microsomes at 10 uM after 10 mins in presence of NADPH by LC-MS/MS analysis relative to control; format: ADME
Sequence of CYP2C19 (P33261 whole entry): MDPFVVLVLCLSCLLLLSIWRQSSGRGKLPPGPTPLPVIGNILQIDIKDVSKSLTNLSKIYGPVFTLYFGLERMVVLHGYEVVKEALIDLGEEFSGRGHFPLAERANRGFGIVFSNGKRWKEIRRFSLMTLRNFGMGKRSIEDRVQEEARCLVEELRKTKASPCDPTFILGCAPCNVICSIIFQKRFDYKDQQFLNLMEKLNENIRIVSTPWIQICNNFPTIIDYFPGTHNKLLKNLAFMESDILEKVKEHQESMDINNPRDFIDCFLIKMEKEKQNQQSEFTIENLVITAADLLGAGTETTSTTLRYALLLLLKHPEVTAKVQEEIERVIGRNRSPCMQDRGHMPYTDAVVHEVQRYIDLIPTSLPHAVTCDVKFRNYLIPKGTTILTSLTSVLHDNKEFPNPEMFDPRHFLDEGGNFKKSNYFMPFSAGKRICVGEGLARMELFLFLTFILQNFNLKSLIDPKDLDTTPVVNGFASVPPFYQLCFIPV

[16] = Half life in human liver microsomes at 1 uM preincubated for 10 mins followed by NADP addition after 20 mins by LC-MS/MS analysis; format: ADME, microsome; settings: microsomes, 20 min, 1 µM
[17] = system: OCI-Ly10; experiment: Growth inhibition of human OCI-LY10 cells after 48 hrs by MTS assay; format: functional; settings: OCI-Ly10, 48 h
[18] = target: CYP2C9 (Homo sapiens, UniProt P11712); experiment: Inhibition of CYP2C9 in human liver microsomes at 10 uM after 10 mins in presence of NADPH by LC-MS/MS analysis relative to control; format: ADME
Sequence of CYP2C9 (P11712 whole entry): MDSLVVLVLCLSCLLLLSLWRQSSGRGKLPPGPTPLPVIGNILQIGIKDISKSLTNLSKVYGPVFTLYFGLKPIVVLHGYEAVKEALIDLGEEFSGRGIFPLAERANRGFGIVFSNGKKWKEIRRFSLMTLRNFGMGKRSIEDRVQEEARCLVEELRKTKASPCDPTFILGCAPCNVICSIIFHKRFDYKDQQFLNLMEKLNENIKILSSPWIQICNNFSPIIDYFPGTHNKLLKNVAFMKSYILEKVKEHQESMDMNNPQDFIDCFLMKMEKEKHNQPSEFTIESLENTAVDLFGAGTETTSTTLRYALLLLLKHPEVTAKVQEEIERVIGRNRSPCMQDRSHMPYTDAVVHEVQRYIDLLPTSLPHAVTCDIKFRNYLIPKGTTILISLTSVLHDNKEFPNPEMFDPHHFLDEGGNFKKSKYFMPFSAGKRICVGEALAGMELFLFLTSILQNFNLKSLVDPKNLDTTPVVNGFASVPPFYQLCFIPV

[19] = Growth inhibition of human LAL-CUN-2 cells at 10 uM after 48 hrs by MTS assay relative to control; format: functional; settings: read-out: GI
[20] = target: T4, Histone-lysine N-methyltransferase EHMT1 (Homo sapiens, UniProt Q9H9B1); experiment: Inhibition of recombinant human GLP using histone H3 peptide as substrate after 120 mins in presence of [3H]SAM by radiometric assay
T4 sequence (Q9H9B1 whole entry): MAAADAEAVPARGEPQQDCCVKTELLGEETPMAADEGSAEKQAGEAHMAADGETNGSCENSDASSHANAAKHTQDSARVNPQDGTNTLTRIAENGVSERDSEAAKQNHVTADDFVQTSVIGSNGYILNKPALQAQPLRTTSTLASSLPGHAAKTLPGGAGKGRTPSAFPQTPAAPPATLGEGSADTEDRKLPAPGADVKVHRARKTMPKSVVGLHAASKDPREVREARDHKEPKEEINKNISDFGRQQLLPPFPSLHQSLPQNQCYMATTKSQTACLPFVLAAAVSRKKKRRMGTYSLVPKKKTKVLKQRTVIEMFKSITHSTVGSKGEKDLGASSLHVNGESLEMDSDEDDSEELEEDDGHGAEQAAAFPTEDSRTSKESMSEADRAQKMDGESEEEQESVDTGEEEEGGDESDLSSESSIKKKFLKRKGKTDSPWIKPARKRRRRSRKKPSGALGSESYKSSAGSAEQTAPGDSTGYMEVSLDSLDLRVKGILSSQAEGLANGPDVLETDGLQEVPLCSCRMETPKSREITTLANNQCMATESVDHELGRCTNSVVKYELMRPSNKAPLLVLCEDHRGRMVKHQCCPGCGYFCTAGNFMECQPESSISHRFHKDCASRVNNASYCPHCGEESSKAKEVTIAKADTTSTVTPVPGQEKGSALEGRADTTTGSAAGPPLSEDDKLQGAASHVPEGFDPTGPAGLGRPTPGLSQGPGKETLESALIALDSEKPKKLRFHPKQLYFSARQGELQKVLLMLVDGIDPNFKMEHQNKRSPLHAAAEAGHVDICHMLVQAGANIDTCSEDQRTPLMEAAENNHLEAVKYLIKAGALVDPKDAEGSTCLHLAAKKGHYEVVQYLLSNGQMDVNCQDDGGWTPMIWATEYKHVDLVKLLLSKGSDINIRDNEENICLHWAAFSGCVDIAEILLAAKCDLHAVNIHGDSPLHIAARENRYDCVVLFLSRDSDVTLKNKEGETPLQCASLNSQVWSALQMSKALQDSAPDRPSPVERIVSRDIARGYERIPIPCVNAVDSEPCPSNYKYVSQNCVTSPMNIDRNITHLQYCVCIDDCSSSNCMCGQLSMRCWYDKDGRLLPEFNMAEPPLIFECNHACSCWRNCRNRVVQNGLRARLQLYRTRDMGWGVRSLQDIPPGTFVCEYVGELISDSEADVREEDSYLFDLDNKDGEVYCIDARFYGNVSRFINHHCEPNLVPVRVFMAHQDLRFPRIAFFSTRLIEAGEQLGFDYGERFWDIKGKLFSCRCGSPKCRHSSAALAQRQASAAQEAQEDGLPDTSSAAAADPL

[21] = target: T1, Histone-lysine N-methyltransferase EHMT2; experiment: Non-competitive inhibition of human G9a using biotinylated-H3K9 peptide as substrate after 1 hr in presence of 2 to 640 uM SAM by TR-FRET assay
[22] = system: OCI-Ly10; experiment: Growth inhibition of human OCI-LY10 cells at 1 uM after 48 hrs by MTS assay relative to control; format: functional; settings: OCI-Ly10, 48 h, read-out: GI
[23] = system: OCI-Ly3; experiment: Growth inhibition of human OCI-LY3 cells at 1 uM after 48 hrs by MTS assay relative to control; format: functional; settings: OCI-Ly3, 48 h, read-out: GI
[24] = target: T2, DNA (cytosine-5)-methyltransferase 1; experiment: Non-competitive inhibition of human DNMT1 using polydeoxyinosine polydeoxycytosine DNA as substrate after 15 mins in presence of 1 to 20 uM SAM by TR-FRET assay
[25] = target: T2, DNA (cytosine-5)-methyltransferase 1; experiment: Competitive inhibition of human DNMT1 using 1 to 100 ug/ml polydeoxyinosine polydeoxycytosine DNA as substrate after 15 mins in presence of SAM by TR-FRET assay
[26] = target: T1, Histone-lysine N-methyltransferase EHMT2; experiment: Competitive inhibition of human G9a using 40 to 2560 nM biotinylated-H3K9 peptide as substrate after 1 hr in presence of SAM by TR-FRET assay

COc1cc2c(NC3CCN(C)CC3)cc(C)nc2cc1OCCCN1CCCC1
IC50 [1]: 6 nM
IC50 [2]: 929 nM
inhibition of growth at 10 µM [3]: 14%

COc1cc2c(NC3CCN(C(C)C)CC3)cc(-c3ccc(C)o3)nc2cc1OCCCN1CCCC1
GI50 [4]: 898 nM
inhibition at 10 min, 10 µM [5]: 0%
inhibition at 10 min, 10 µM [6]: 4.3%
inhibition at 10 min, 10 µM [7]: 11.4%
IC50 [1]: 3 nM
remaining at 20 min, 1 µM [8]: 36.9%
LC50 [9]: 1340 nM
IC50 [2]: 231 nM
half-life at 1 µM [10]: 18 min
GI50 [11]: 247 nM
Stability [12]: 64%
Papp at 18 h, 50 µM [13]: 2.58 ×10⁻⁶ cm/s
GI50 [14]: 649 nM
inhibition at 10 min, 10 µM [15]: 0%
t1/2 [16]: 102 min
GI50 [17]: 792 nM
inhibition at 10 min, 10 µM [18]: 6.1%

COc1cc2c(NC3CCN(C)CC3)cc(N3CCN(C)CC3)nc2cc1OCCCN1CCCC1
IC50 [1]: 42 nM
IC50 [2]: 945 nM
inhibition of growth at 10 µM [3]: 14%

COc1cc2c(NC3CCN(C)CC3)cc(-c3ccoc3)nc2cc1OCCCN1CCCC1
GI50 [4]: > 4000 nM
IC50 [1]: 7 nM
LC50 [9]: 22300 nM
IC50 [2]: 978 nM
inhibition of growth at 10 µM [19]: 54%
GI50 [11]: 4560 nM
Papp at 18 h, 50 µM [13]: 0.22 ×10⁻⁶ cm/s
GI50 [17]: 386 nM

COc1cc2c(NC3CCN(C(C)C)CC3)cc(C3CCCCC3)nc2cc1OCCCN1CCCC1
IC50 [20]: 180 nM
IC50 [21]: 0.5 to 2 nM
IC50 [1]: 0.7 nM
inhibition of growth at 1 µM [22]: 0%
LC50 [9]: 83800 nM
IC50 [2]: 619 nM
inhibition of growth at 1 µM [23]: 0%
IC50 [24]: 1400 to 2400 nM
GI50 [11]: > 10000 nM
GI50 [14]: > 10000 nM
IC50 [25]: 1400 to 10000 nM
IC50 [26]: 0.7 to 29 nM
